Measurements: US20140287931A1, “METHODS AND COMPOSITIONS FOR PREDICTING RESISTANCE TO ANTICANCER TREATMENT” (Stichting het Nederlands Kanker Instituut - Antoni van …, priority 2011, published 2014)
Entries after “also recorded” stand apart in the source; their conditions may differ. Where two headings read alike, the source gives them in different places.

Tests used:
T47D breast cancer cells = test: Colony formation assay in T47D cells with ARID1A knockdown; assay type: cell-based; conditions: 10 and 20 nM AZD8055, 4 weeks
Procedure: (§1) (B) Validation of independent shRNAs (in pLKO vector) targeting ARID1A in T47D breast cancer cells. TIhe functional phenotypes of non-overlapping shARID1A vectors are indicated by the colony formation assay in 10 and 20 nM small molecule mTOR inhibitor AZD8055. The cells were fixed, stained and photographed after 2 weeks (untreated) or 4 weeks (inhibitor treatment). Ectopic expression of a mutant of cyclin DI (pBpDITA) served as a control in the experiment. (C) Validation of independent shRNAs (in pLKO vector) targeting ARID1A in MCF7 breast cancer cells. The functional phenotypes of non-overlapping shARIDJA vectors are indicated by the colony formation assay in 20 and 40 nM small molecule mTOR inhibitor AZD8055. The cells were fixed, stained and photographed after 2 weeks (untreated) or 4 weeks (inhibitor treatment). (D). Quantification of ARID1A mRNA levels by QRT-PCR after knockdown of ARID1A in MCF7 breast cancer cells.

MCF7 breast cancer cells = test: Colony formation assay in MCF7 cells with ARID1A knockdown; assay type: cell-based; conditions: 20 and 40 nM AZD8055, 4 weeks
Procedure: as §1

[1] = test system: PI3K pathway members (p473-AKT, p235/236-S6RP); test: Immunoblot of PI3K pathway members in BT474 cells; assay type: cell-based, human; conditions: BT474 expressing three independent shARID1A vectors versus shctrl; increasing amounts of AZD8055, three hours
Procedure: BT474 cells stably expressing either shctrl, shTSC2 or three independent shARID1A vectors were exposed to increasing amounts of the mTOR inhibitor AZD8055. After three hours, cell lysates were prepared and PI3K pathway members were immunoblotted.

[2] = test system: BT474 breast cancer cells; test: Colony formation assay in BT474 cells with ARID1A knockdown; assay type: cell-based, human; conditions: 25 nM AZD8055 or 2 ug/ml trastuzumab, 4 weeks
Description: The cells were fixed, stained and photographed after 2 weeks (untreated) or 4 weeks (inhibitor treatment).

[3] = test system: human NSCLC cell lines that harbor EML4-ALK translocations; conditions: cited from earlier work
phospho-AKT = test: Western blotting of phospho-AKT in H3122 cells; assay type: cell-based, human; conditions: H3122 shSMARCE1 cells versus controls; 20 nM NVP-TAE684, 24 hours
Procedure: (B) SMARCE1^KD cells have elevated phospho-AKT levels in EML4-ALK cells. H3122 cells expressing controls (pRS or shGFP) or shSMARCE1 vectors were gown in the absence or presence of 20 nM NVP-TAE684 for 24 hours and the cell lysates were harvested for western blotting analysis. (C) MED12^KD cells have elevated phospho-AKT levels in EGFR mutant cells. PC9 cells expressing controls (pRS or shGFP) or shSMARCE1 vectors were gown in the absence or presence of 25 nM Gefitinib for 8 hours and the cell lysates were harvested for western blotting analysis.
Given that loss of MED2 or SMARCE1 causes resistance to multiple tyrosine kinase inhibitors in NSCLC cell lines, Applicants asked whether the activity of downstream components of receptor tyrosine kinase signaling is altered. AKT is a key downstream component and its phosphorylation status positively correlates with its activation that can be determined by specific antibodies against the phosphorylated form of AKT. 1-13122 cells were infected with two independent controls shRNA vectors or shRNAs targeting either MED12 or SMARCE1 and confirmed loss of MED112 or SMARCE1 protein by immunoblotting (FIGS. 15A and B). The cells were also treated of left untreated with the ALK inhibitor NVP-TAE684, to address the activation status of AKT in the presence or absence of the inhibitor. […]

H3122 cells = test: Colony formation assay in H3122 cells with or without shRNA knockdown; assay type: cell-based, human; conditions: for sensitivity to ALK inhibitors after restoration of Med12: H3122 MED12 knockdown cells (shMED12_TRC#3, #5) plus mouse Med12 cDNA; for sensitivity to ALK inhibitors after restoration of Med12 / sensitivity to ALK inhibitors after restoration of SMARCE1: 300 nM Crizotinib or 2.5 nM NVP-TAE684; for sensitivity to ALK inhibitors after restoration of SMARCE1: H3122 SMARCE1 knockdown cells plus SMARCE1-ND; for resistance to ALK inhibitors on suppression of ARID1A or SMARCE1, colony formation: H3122 expressing independent shARID1A or shSMARCE1 vectors; for resistance to ALK inhibitors on suppression of ARID1A or SMARCE1, colony formation / resistance to ALK inhibitors on suppression of MED12, colony formation / resistance to ALK inhibitors, colony formation: 300 nM Crizotinib or 2.5 nM NVP-TAE684, 4 weeks; for resistance to ALK inhibitors on suppression of MED12, colony formation: H3122 expressing independent shMED12 vectors (pRS #3; pLKO TRC#2, #3, #5); for resistance to ALK inhibitors, colony formation: H3122 expressing library shMED12#1, shMED12#2, shARID1A or shSMARCE1
[4] = test system: HCC 1954 breast cancer cells; test: shRNA bar code screen in HCC 1954 breast cancer cells; assay type: cell-based
[5] = test system: SKBR3 breast cancer cells; test: shRNA bar code screen in SKBR3 breast cancer cells; assay type: cell-based
[6] = test system: H1993 (MET-amplified) cells; conditions: 200 nM Crizotinib; for sensitivity to MET inhibitor after restoration of SMARCE1: H1993 SMARCE1-knockdown cells plus SMARCE1-ND; for resistance to MET inhibitor on suppression of ARID1A: H1993 expressing shARID1A #1 and #2, 4 weeks
[7] = test system: EBC-1 (MET-amplified) cells; conditions: 200 nM Crizotinib; for sensitivity to MET inhibitor after restoration of SMARCE1: EBC-1 SMARCE1-knockdown cells plus SMARCE1-ND
Procedure: (§2) Single cell suspensions of the lung cancer cell lines were seeded into 6-well plates (2×10^4 cells/well) and cultured both in the absence and presence of the ALK inhibitors. At the endpoints of colony formation assays, cells were fixed with formaldehyde, stained with crystal violet (0,1% w/v) and photographed. All relevant assays were performed independently at least three times. All knockdown and overexpression experiments were done by retroviral or lentiviral infections.
(§3) Subclones of each NSCLC cell line expressing the murine ecotropic receptor were generated and used for all experiments shown. Retroviral infections were performed using Phoenix cells as producers of retroviral supernatants using 2.5-3 μg of plasmid DNA as described (http://www(dot)stanford(dot)edu/group/nolan/retroviralsystems/phx(dot)html). […] For transfections of Phoenix cells, Applicants seeded 1.0×10^6 cells in a 6-well dish in the morning and transfected the cells 6-8 hours later. Cells were refreshed the next day in the morning and afternoon. Viral supernatant was harvested the day thereafter for infections of the target cells. […] Infected NSCLC cells were selected for successful retroviral integration using 2 μg/ml of puromycin.

[8] = test system: PC9 cells (EGFRdelE746-A750); assay type: cell-based, human
Procedure: as §2, §3

DAB2IP mRNA = test: DAB2IP knockdown by qRT-PCR in PC9 cells; assay type: cell-based, human
Procedure: QRT-PCR assays were carried out to measure mRNA levels of genes using 7500 Fast Real-Time PCR System (Applied Biosystems). Total RNA was isolated using Trizol (Invitrogen) and 1 μg of total RNA was used for cDNA synthesis using superscrpipt 11 reverse transcriptase (Invitrogen) and random hexamer primers (Invitrogen). Relative mRNA levels of each gene shown were normalized to the expression of the house keeping gene GAPDH. The sequences of the primers for assays using SYBR® Green master mix (Roche) are listed below (h, human: m, mouse).

COc1ccc(-c2ccc3c(N4CCOC[C@@H]4C)nc(N4CCOC[C@@H]4C)nc3n2)cc1CO [AZD8055]
resistance on suppression of ARID1A, colony formation (T47D breast cancer cells): conferred resistance; also recorded: confers resistance | resistance on suppression of ARID1A, colony formation (MCF7 breast cancer cells): conferred resistance; also recorded: confers resistance | phosphorylated AKT (p473-AKT) levels in the presence of inhibitor [1]: maintained higher levels | phosphorylated S6RP (p235/236-S6RP) levels in the presence of inhibitor [1]: maintained higher levels | resistance on knockdown of ARID1A, colony formation [2]: conferred resistance

COc1cc(N2CCC(N3CCN(C)CC3)CC2)ccc1Nc1ncc(Cl)c(Nc2ccccc2S(=O)(=O)C(C)C)n1 [NVP-TAE684]
inhibition of EML4-ALK NSCLC cell lines [3]: potently inhibit | phosphorylated AKT levels in the presence of inhibitor (phospho-AKT): maintained higher levels | sensitivity to ALK inhibitors after restoration of Med12 (H3122 cells): re-sensitizes | sensitivity to ALK inhibitors after restoration of SMARCE1 (H3122 cells): re-sensitizes | resistance to ALK inhibitors on suppression of ARID1A or SMARCE1, colony formation (H3122 cells): confers drug resistance | resistance to ALK inhibitors on suppression of MED12, colony formation (H3122 cells): confers drug resistance | resistance to ALK inhibitors, colony formation (H3122 cells): confer resistance

Cn1c(=O)n(-c2ccc(C(C)(C)C#N)cc2)c2c3cc(-c4cnc5ccccc5c4)ccc3ncc21 [NVPBEZ235]
resistance on knockdown of ARID1A [4]: conferred resistance

Oc1cccc(-c2nc(N3CCOCC3)c3oc4ncccc4c3n2)c1 [PI-103]
resistance on knockdown of ARID1A (SMARCF1) [5]: conferred resistance

C[C@@H](Oc1cc(-c2cnn(C3CCNCC3)c2)cnc1N)c1c(Cl)ccc(F)c1Cl [crizotinib]
sensitivity to ALK inhibitors after restoration of Med12 (H3122 cells): re-sensitizes | sensitivity to ALK inhibitors after restoration of SMARCE1 (H3122 cells): re-sensitizes | resistance to ALK inhibitors on suppression of ARID1A or SMARCE1, colony formation (H3122 cells): confers drug resistance | resistance to ALK inhibitors on suppression of MED12, colony formation (H3122 cells): confers drug resistance | resistance to ALK inhibitors, colony formation (H3122 cells): confer resistance | sensitivity to MET inhibitor after restoration of SMARCE1 [6]: restored the sensitivity | sensitivity to MET inhibitor after restoration of SMARCE1 ([6]; listed as Crizotinib): re-sensitizes | resistance to MET inhibitor on suppression of ARID1A [6]: conferred resistance | resistance to MET inhibitor on suppression of ARID1A ([6]; listed as Crizotinib): are resistance | resistance to MET inhibitor on suppression of SMARCE1 ([6]; H1993 expressing shSMARCE1#1 and #2): conferred resistance | sensitivity to MET inhibitor after restoration of SMARCE1 [7]: restored the sensitivity | sensitivity to MET inhibitor after restoration of SMARCE1 ([7]; listed as Crizotinib): re-sensitizes | resistance to MET inhibitor on suppression of SMARCE1 ([7]; EBC-1 expressing shSMARCE1#1 and #2): conferred resistance

shDAB2IP#2: lentiviral pLKO shRNA vector from the TRC library targeting DAB2IP, sequence GACTCCAAACAGAAGATCATT (pLKO lentiviral vector)
toxicity of shRNA vector [8]: exhibited toxicity

shDAB2IP#5: lentiviral pLKO shRNA vector from the TRC library targeting DAB2IP, sequence GCACATCACTAACCACTACCT (pLKO lentiviral vector)
knockdown of DAB2IP (DAB2IP mRNA): failed to induce a knockdown
